Measured values from ChEMBL document CHEMBL1150147, “Bioactive natural products from a sclerotium-colonizing isolate of Humicola fuscoatra” (2002).

System: Aspergillus flavus
Experiment: Antifungal activity against Aspergillus flavus at 200 ug/disk by disk assay
Type: functional
Conditions: read-out: IZ

In the case of `CC(=O)O[C@@H]1C[C@]2(C)C3=C(CC[C@H]2C(C)(C)[C@@H]1O[C@@H]1O[C@H](CO)[C@@H](O)[C@H](O)[C@H]1O)[C@@]1(C)CC[C@](C)([C@H](C)C(C)C)[C@@H](C(=O)O)[C@]1(C)CC3` [FUSCOATROSIDE], the zone of inhibition at 200 µg/disc is reported as 18 mm.
